{"source": "ChEMBL document CHEMBL3616426", "about": "(Eur J Med Chem, 2015)", "key": {"Rattus norvegicus [1]": {"tested_on": "Rattus norvegicus", "test": "Antiosteoporotic activity in ovariectomized Sprague-Dawley rat assessed as trabecular thickness at 10 ug/kg, po qd at 6th week by micro-CT analysis (reference value: 0.086 +/- 0.0069 millimeter)", "assay_type": "functional, Trabecula"}, "Rattus norvegicus [2]": {"tested_on": "Rattus norvegicus", "test": "Antiosteoporotic activity in ovariectomized Sprague-Dawley rat assessed as trabecular separation at 1 ug/kg, po qd at 12th week by micro-CT analysis (reference value: 0.146 +/- 0.010 millimeter)", "assay_type": "functional, Trabecula"}, "Rattus norvegicus [3]": {"tested_on": "Rattus norvegicus", "test": "Antiosteoporotic activity in ovariectomized Sprague-Dawley rat assessed as trabecular thickness at 3 ug/kg, po qd at 6th week by micro-CT analysis (reference value: 0.086 +/- 0.0069 millimeter)", "assay_type": "functional, Trabecula"}, "Rattus norvegicus [4]": {"tested_on": "Rattus norvegicus", "test": "Antiosteoporotic activity in ovariectomized Sprague-Dawley rat assessed as trabecular thickness at 1 ug/kg, po qd at 6th week by micro-CT analysis (reference value: 0.086 +/- 0.0069 millimeter)", "assay_type": "functional, Trabecula"}, "Rattus norvegicus [5]": {"tested_on": "Rattus norvegicus", "test": "Antiosteoporotic activity in ovariectomized Sprague-Dawley rat assessed as serum osteocalcin level at 3 ug/kg, po qd at 12th week by enzyme immunoassay (reference value: 1055.8 +/- 14 ng/ml)", "assay_type": "functional"}, "Rattus norvegicus [6]": {"tested_on": "Rattus norvegicus", "test": "Antiosteoporotic activity in ovariectomized Sprague-Dawley rat assessed as bone volume /tissue volume at 1 ug/kg, po qd at 6th week by micro-CT analysis (reference value: 41.33 +/- 5.04%)", "assay_type": "functional"}, "Rattus norvegicus [7]": {"tested_on": "Rattus norvegicus", "test": "Antiosteoporotic activity in ovariectomized Sprague-Dawley rat assessed as serum osteocalcin level at 1 ug/kg, po qd at 12th week by enzyme immunoassay (reference value: 1055.8 +/- 14 ng/ml)", "assay_type": "functional"}, "Rattus norvegicus [8]": {"tested_on": "Rattus norvegicus", "test": "Antiosteoporotic activity in ovariectomized Sprague-Dawley rat assessed as bone volume /tissue volume recovery at 10 ug/kg, po qd measured at 18th week by micro-CT analysis relative to SHAM control", "assay_type": "functional"}, "[9]": {"test": "n-octanol-water partition coefficient, log P of the compound after 24 hrs by HPLC analysis", "assay_type": "physicochemical"}, "Rattus norvegicus [10]": {"tested_on": "Rattus norvegicus", "test": "Antiosteoporotic activity in ovariectomized Sprague-Dawley rat assessed as trabecular separation at 3 ug/kg, po qd at 6th week by micro-CT analysis (reference value: 0.116 +/- 0.010 millimeter)", "assay_type": "functional, Trabecula"}, "Rattus norvegicus [11]": {"tested_on": "Rattus norvegicus", "test": "Antiosteoporotic activity in ovariectomized Sprague-Dawley rat assessed as trabecular thickness at 3 ug/kg, po qd at 12th week by micro-CT analysis (reference value: 0.070 +/- 0.0063 millimeter)", "assay_type": "functional, Trabecula"}, "Rattus norvegicus [12]": {"tested_on": "Rattus norvegicus", "test": "Antiosteoporotic activity in ovariectomized Sprague-Dawley rat assessed as serum osteocalcin level at 1 ug/kg, po qd at 18th week by enzyme immunoassay (reference value: 1118.9 +/- 37.77 ng/ml)", "assay_type": "functional"}, "Mus musculus": {"tested_on": "Mus musculus", "test": "Acute toxicity in ICR mouse assessed as survival at 5000 ug/kg, po after 2 weeks", "assay_type": "organism-based", "settings": "in vivo, 5 mg/kg, 336 h"}, "Rattus norvegicus [13]": {"tested_on": "Rattus norvegicus", "test": "Antiosteoporotic activity in ovariectomized Sprague-Dawley rat assessed as trabecular separation at 10 ug/kg, po qd at 12th week by micro-CT analysis (reference value: 0.146 +/- 0.010 millimeter)", "assay_type": "functional, Trabecula"}, "Rattus norvegicus [14]": {"tested_on": "Rattus norvegicus", "test": "Antiosteoporotic activity in ovariectomized Sprague-Dawley rat assessed as trabecular thickness at 3 ug/kg, po qd at 18th week by micro-CT analysis (reference value: 0.103 +/- 0.0044 millimeter)", "assay_type": "functional, Trabecula"}, "Rattus norvegicus [15]": {"tested_on": "Rattus norvegicus", "test": "Antiosteoporotic activity in ovariectomized Sprague-Dawley rat assessed as bone volume /tissue volume at 3 ug/kg, po qd at 6th week by micro-CT analysis (reference value: 41.33 +/- 5.04%)", "assay_type": "functional"}, "Rattus norvegicus [16]": {"tested_on": "Rattus norvegicus", "test": "Antiosteoporotic activity in ovariectomized Sprague-Dawley rat assessed as bone volume /tissue volume at 10 ug/kg, po qd at 12th week by micro-CT analysis (reference value: 31.61 +/- 2.39%)", "assay_type": "functional"}, "Estrogen receptor beta": {"target": "Estrogen receptor beta (Homo sapiens, UniProt Q92731)", "sequence (Q92731 whole entry, the tested form may be a part)": "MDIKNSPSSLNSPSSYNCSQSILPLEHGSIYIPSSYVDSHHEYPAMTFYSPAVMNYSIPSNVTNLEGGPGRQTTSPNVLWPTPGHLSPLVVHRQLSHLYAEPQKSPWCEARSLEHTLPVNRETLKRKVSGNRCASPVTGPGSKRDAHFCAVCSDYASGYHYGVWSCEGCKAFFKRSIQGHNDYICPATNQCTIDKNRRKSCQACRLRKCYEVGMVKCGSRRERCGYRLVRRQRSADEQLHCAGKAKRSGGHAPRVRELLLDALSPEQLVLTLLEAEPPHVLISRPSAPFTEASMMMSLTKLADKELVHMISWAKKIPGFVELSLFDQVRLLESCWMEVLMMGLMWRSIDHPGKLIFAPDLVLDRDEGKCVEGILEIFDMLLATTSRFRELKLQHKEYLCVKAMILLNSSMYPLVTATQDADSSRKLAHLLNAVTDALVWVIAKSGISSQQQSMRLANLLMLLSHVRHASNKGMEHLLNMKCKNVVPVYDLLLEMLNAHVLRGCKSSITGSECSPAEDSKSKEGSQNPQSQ", "test": "Agonist activity at ERbeta (248 to 510 amino acid residues) (unknown origin) assessed as induction of interaction with SRC1 after 24 hrs by yeast two-hybrid assay"}, "Rattus norvegicus [17]": {"tested_on": "Rattus norvegicus", "test": "Antiosteoporotic activity in ovariectomized Sprague-Dawley rat assessed as serum osteocalcin level at 10 ug/kg, po qd at 12th week by enzyme immunoassay (reference value: 1055.8 +/- 14 ng/ml)", "assay_type": "functional"}}, "data": [{"smiles": "O=C1c2cc(O)cc(O)c2[C@@H](c2ccc(O)cc2)[C@@H]1c1cc(O)cc(O)c1", "note": "[ISOPAUCIFLORAL F]", "values": [{"measurement": "Activity", "setting": "Rattus norvegicus [1]", "result": 0.082, "unit": "mm"}, {"measurement": "Activity", "setting": "Rattus norvegicus [2]", "result": 0.18, "unit": "mm"}, {"measurement": "Activity", "setting": "Rattus norvegicus [3]", "result": 0.092, "unit": "mm"}, {"measurement": "Activity", "setting": "Rattus norvegicus [4]", "result": 0.083, "unit": "mm"}, {"measurement": "Activity", "setting": "Rattus norvegicus [5]", "result": 1109.6, "unit": "ng/mL"}, {"measurement": "Activity", "setting": "Rattus norvegicus [6]", "result": 40.38, "unit": "%"}, {"measurement": "Activity", "setting": "Rattus norvegicus [7]", "result": 1172.9, "unit": "ng/mL"}, {"measurement": "Activity", "setting": "Rattus norvegicus [8]", "result": 78, "unit": "%"}, {"measurement": "logP at 24 h", "setting": "[9]", "result": 1.34}, {"measurement": "Activity", "setting": "Rattus norvegicus [10]", "result": 0.097, "unit": "mm"}, {"measurement": "Activity", "setting": "Rattus norvegicus [11]", "result": 0.085, "unit": "mm"}, {"measurement": "Activity", "setting": "Rattus norvegicus [12]", "result": 812.1, "unit": "ng/mL"}, {"measurement": "Activity", "setting": "Mus musculus", "result": "Non-toxic"}, {"measurement": "Activity", "setting": "Rattus norvegicus [13]", "result": 0.138, "unit": "mm"}, {"measurement": "Activity", "setting": "Rattus norvegicus [14]", "result": 0.102, "unit": "mm"}, {"measurement": "Activity", "setting": "Rattus norvegicus [15]", "result": 52.56, "unit": "%"}, {"measurement": "Activity", "setting": "Rattus norvegicus [16]", "result": 38.43, "unit": "%"}, {"measurement": "EC50", "setting": "Estrogen receptor beta", "result": 47, "unit": "µM"}, {"measurement": "Activity", "setting": "Rattus norvegicus [17]", "result": 1156.07, "unit": "ng/mL"}]}]}
